These results are taken from PubChem BioAssay AID179 (DTP/NCI, 2004).

The experiment deals with CEM cells HIV-1 protection, formazan growth assay. As to the kind of experiment: NCI AIDS Antiviral Assay. The conditions noted are these: for IC50: measured here: growth of uninfected CEM cells. An outline of the steps: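 Human CEM cells, uninfected and HIV-1-infected, exposed to five drug concentrations; growth measured by soluble formazan assay and scored as percent protection from infection, with protecting compounds retested.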

Structures are written as SMILES. Where “and” joins values, the source holds several entries; their conditions need not be identical. Equal values may be shown once. Calls of active or inactive are those of the source.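 How the source made its calls: active means compounds giving half or more protection of infected cells from virus-caused growth loss, again on retest; inactive means the rest.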 Where a SMILES comes first, the peptide text is derived from it. Bounds are passed on as bounds.

With `O=C(Nc1cccc(C(F)(F)F)c1)c1cc(Br)cc(Br)c1O`, the EC50 is greater than 200 µM and the IC50 came to 1.51 µM.
Turning to `Cc1cc2c(c(=O)[nH]1)C(=O)OC2`, the EC50 was greater than 1100 µM and the IC50 was greater than 1100 µM.
With `COC(=O)CN1C(=O)c2cccc3cc(N)cc(c23)C1=O`, the EC50 was greater than 200 µM and the IC50 was greater than 200 µM.
With `CN(C)c1ccc(/C=C(\C#N)c2c(Cl)cccc2Cl)cc1`, the EC50 is greater than 200 µM and the IC50 came to 4.57 µM.
For `CC1OC(OC2C(O)COC(OC3C(C)OC(OC4C(OC(=O)[C@]56CCC(C)(C)C[C@@H]5C5=CCC7[C@@]8(C)C[C@H](O)[C@H](OC9OC(CO)C(O)C(O)C9O)[C@@](C)(CO)[C@@H]8CC[C@@]7(C)[C@]5(C)CC6)OCC(O)C4O)C(O)C3OC3OCC(O)C(O)C3O)C2O)C(O)C(O)C1O` (some centres not stated), in that order: greater than 58.9 µM and 19.5 µM.
With `O=C1NC(N/N=C\C(O)C(O)C(O)C(O)CO)=N/C1=C/c1ccc(Cl)cc1` (configuration not stated), the EC50 was greater than 200 µM; the IC50 is 61.7 µM and 37.2 µM.
Take `CCCCOC(=O)N(CCCC)c1ccccc1`: the EC50 is greater than 200 µM and the IC50 was 151 µM.
On the same counts, the results for `Cc1cc(C)nc(NS(=O)(=O)c2ccc(NC(=O)c3ccccc3SC(=O)CCCC[n+]3ccccc3)cc2)n1` are 17 µM and 51.3 µM.
Turning to `COc1ccc(C(=O)C2CC3(CCC2(O)c2ccc(OC)cc2)CC(=O)Nc2ccccc2C3=O)cc1` (configuration not stated), the EC50 was greater than 200 µM and the IC50 was 72.4 µM.
For `COC(=O)CCSSCCC(=O)OC`, in that order: greater than 1050 µM and 182 µM.
On the same counts, the results for `CCOC(=O)C1=C(C)/C(=C\c2[nH]c(C)c(C(=O)OCC)c2C)N=C1C` are greater than 200 µM and greater than 200 µM.
For `CCCc1cc(=O)oc2c3c(c4c(c12)OC(C)(C)C=C4)O[C@@H](C)[C@H](C)C3=O`, the EC50 is 4.9 µM and the IC50 is 97.7 µM.
For `COc1ccc(/C=C2\NC(=S)N(CN3CCCCC3)C2=O)cc1`, in that order: greater than 200 µM and 30.9 µM.
As for `COc1ccc2c3c([nH]c2c1[N+](=O)[O-])C(C)N(C(=O)/C=C/c1ccccc1)CC3` (configuration not stated), the outcome was inactive.
Same read-out and setting: next, `CC(=O)CC(=O)CCCC(=O)Nc1ccc(Cl)cc1Cl`: “inactive”.
As to `C=CCOC(C)n1c(C)c(Br)c(=O)[nH]c1=O` (configuration not stated), the outcome was inactive and the IC50 was greater than 200 µM.
Take `COc1cc(C2NCCC(c3ccccc3)(c3ccccc3)N2)cc(OC)c1OC` (configuration not stated): the EC50 was greater than 200 µM and the IC50 is 19.5 µM.
For `CC(=O)NC(CCCN)C(=O)NCc1ccccc1` (configuration not stated), in that order: greater than 955 µM and greater than 955 µM.
For `CC(C)C1CCC/C=C/C=C/C=C/C=C/C(OC2OC(C)C(O)C(N)C2O)CC2OC(O)(CC(O)CC(O)C(O)CCC(=O)O1)CC(O)C2C(=O)O` (configuration not stated), in that order: greater than 339 µM and greater than 339 µM.
Consider `CN(C)CCSc1cc(-c2ccccc2)c2ccccc2n1`, for which the EC50 is greater than 200 µM and the IC50 is 6.31 µM.
Take `O=S(=O)(CC1=NC2C=CC=CC2N=C1)NCc1ccccc1` (configuration not stated): the outcome was inactive.
On the same count and under the same terms, in the case of `O=C(NC(=O)c1cn(CCN(CCO)C(=O)NCCCCCCNC(=O)N(CCO)CCn2cc(C(=O)NC(=O)OCc3ccccc3)c(=O)[nH]c2=O)c(=O)[nH]c1=O)OCc1ccccc1` it was “inactive”.
Consider `CC12CCC[C@@](C)(C(=O)O)[C@H]1CCC1=CC3(CCC12)SCCS3` (some centres not stated), for which the EC50 was greater than 355 µM and the IC50 amounted to 57.5 µM.
On the same counts, the results for `S=C1Cc2cc3ccccc3nc2-c2ccccc2N1` are greater than 100 µM and greater than 100 µM.
On to `O=C(O)c1ccccc1CC1Cc2ccccc2C1`, for which the EC50 is greater than 200 µM and the IC50 is greater than 200 µM.
As for `NC(=O)C(=Cn1c(=S)[nH]c2ccccc21)C(N)=O`, the EC50 is greater than 200 µM and the IC50 is greater than 200 µM.
Take `O=C(N/N=C(\c1ccccc1)c1ccccn1)NC1CCCCC1`: the result was inactive.
On to `CCCC(=O)N[C@@H](Cc1cc(I)c(O)c(I)c1)C(=O)NCCCNCCCCNCCCNC(=O)[C@@H](N)CCCN=C(N)N`, for which the EC50 was greater than 100 µM and the IC50 turned out to be 44.7 µM.
For `O=C(NI1OC(=O)c2ccccc21)c1ccc(Cl)cc1`, in that order: greater than 151 µM and 85.1 µM.
On the same counts, the results for `O=C1Sc2ccccc2C(=O)N2CCCC12` (configuration not stated) are greater than 200 µM and greater than 200 µM.
For the molecule `Clc1cc(Cc2cc(Cl)c(Cl)c3c2OCOC3)c2c(c1Cl)COCO2`, the result was inactive.
For `CCC(C)C(NC(=O)C(N)CCCCN)C(=O)NC(CCC(N)=O)C(=O)NC(CO)C(=O)NC(C(=O)O)C(C)O` (configuration not stated) (H-KIQST-OH; configuration not given here), the EC50 is greater than 115 µM and the IC50 was greater than 115 µM.
On to `N#Cc1c(N2CCCC2)ncn(Cc2ccccc2)c1=S`, for which the EC50 is greater than 200 µM and the IC50 is greater than 200 µM.
In the case of `Cc1ccc(N=NC(=O)NNc2ccc(C)c([N+](=O)[O-])c2)cc1[N+](=O)[O-]`, the EC50 was greater than 200 µM and the IC50 came to 63.1 µM.
Take `N#CC1=C(N2CCOCC2)CCC1`: the EC50 was greater than 200 µM and the IC50 is greater than 200 µM.
For `C[C@@H]1C[C@@H]2C(=O)N(c3ccccc3)C(=O)[C@@H]2c2[nH]c3ccc(Br)cc3c21`, the result was inactive.
For `O=C(NO)c1ccc(O)c(O)c1`, the EC50 was greater than 1480 µM and the IC50 is 74.1 µM.
On the same counts, the results for `O=S1(=O)OCCOS(=O)(=O)C1Cc1ccccc1` are greater than 447 µM and 50.1 µM.
As for `CC(C)(C)[Si](C)(C)OCC1CCC(n2cnc3c(NC(=O)c4ccccc4)ncnc32)O1` (configuration not stated), the result was inactive.
Consider `OC1CSc2nc3ccccc3n2C1` (configuration not stated), for which the EC50 is greater than 200 µM and the IC50 is greater than 200 µM.
In the case of `O=C(CNc1cccc([N+](=O)[O-])c1)Nn1c(-c2ccccc2)nc2ccccc2c1=O`, the EC50 was greater than 20 µM and the IC50 turned out to be 1.05 µM.
On the same counts, the results for `C=CCOc1ccc(/C(N=Nc2ccc(Cl)cc2)=N/NC(=O)c2ccccc2)cc1OC` are greater than 200 µM and 87.1 µM.
For `CCC[CH2][Sn]1([CH2]CCC)[O]C(=O)c2cccnc2[S]1`, in that order: greater than 33.9 µM and 0.631 µM.
On the same counts, the results for `O=C1CN2C(Cl)(Cl)C2(c2ccccc2)c2cc(Cl)ccc2N1CC1CC1` (configuration not stated) are greater than 200 µM and 11.7 µM.
On to `COC(=O)Cc1c(-c2c(CC(=O)OC)c3ccccc3n2C2OC(COC(C)=O)C(OC(C)=O)C(OC(C)=O)C2OC(C)=O)[nH]c2ccccc12` (configuration not stated), for which the EC50 was greater than 200 µM and the IC50 came to 26.3 µM.
On the same counts, the results for `Nc1ccn(C2CC(O)C(COP(O)(=S)OC3CC(n4ccc(N)nc4=O)OC3CO)O2)c(=O)n1` (configuration not stated) are greater than 200 µM and greater than 200 µM.
On the same counts, the results for `CCOC(=O)c1nc(-c2ccccc2)c(-c2ccccc2)c(-c2ccccc2)c1C` are greater than 5.13 µM and greater than 5.13 µM.
For `COC(=O)[C@@]12C(=O)C(C)C(=O)[C@]1(C)C(C)=C[C@H]1[C@]3(C=O)CC[C@H](OC(C)=O)C(C)(C)[C@H]3CC[C@@]12C` (some centres not stated), in that order: greater than 200 µM and 97.7 µM.
In the case of `CC(C)P(=S)(OCc1ccccc1)C(C)C`, the EC50 is greater than 200 µM and the concentration for half-maximal inhibition (IC50) was 126 µM.
For `CCOC(=O)C(C(=O)c1ccccc1)C(=O)c1ccccc1`, in that order: greater than 45.7 µM and greater than 45.7 µM.

In general, EC50 refers to the concentration giving half of the maximal effect. As usually defined, the IC50 is the concentration needed to halve the response being measured. Lower therefore signals inhibition by little substance.
